From US7332480B2, “Compositions for the regulation of cytokine activity” (Yeda Research and Development Co. Ltd., priority 1992, dated 2008)

Assays:
adjuvant arthritis = assay: Adjuvant arthritis (AA) in rats; type: in vivo, Lewis rats
[1] = system: experimental DTH reaction in mice; assay: In vivo bioassay of inhibition of experimental DTH reactivity (oxazolone, ear swelling); set-up: key to effect on DTH (printed in the Dose column): “N.E.” indicates that no effect was observed at the tested dosage range of 0.000004-4 μg/gm mouse; conditions: for DTH / effective dose range for inhibition ≧50% of control: CD1 mice; for effective dose range for inhibition ≧50% of control: Table XXIIIC footnotes, DTH; for effect on DTH (printed in the Dose column): tested dosage range of 0.000004-4 μg/gm mouse s.c.
Method: Groups of inbred BALB/c (Jackson Laboratories, Bar Harbor, Me.) or of outbred CD1 (Weizmann Institute Animal Breeding Center, Rehovot, Israel) mice are sensitized on the shaved abdominal skin with 100 μl of 2% oxazolone (OX) in acetone/olive oil (4/1, v/v) applied topically. DTH sensitivity is elicited 5 days later as follows: mice are challenged with 20 μl of 0.5% OX (10 μl administered topically to each side of the ear) in acetone/olive oil. A constant area of the ear is measured immediately before challenge and 24 and 48 h later with a Mitutoyo engineer's micrometer. The individual measuring ear swelling is blinded to the identity of the groups of mice. The increment (Δ) of ear swelling is expressed as the mean in units of 10^−2 mm or 10^−4 inch (+SE) depending on the micrometer that is used. Percent inhibition is calculated as follows: […]
Mice are treated with LMWH again Example 5.1, injected the day before primary sensitization to OX. On the fifth day after sensitization to OX, the 10 mice are challenged to induce a DTH reaction, as described above.
The positive control is the DTH reaction elicited in immunized mice in the absence of treatment with LMWH. The negative control is the background swelling produced by the antigen in naive (non-immunized) mice. […]
BALB/c mice (at least 5 mice per group) were sensitized on the shaved abdomen with 3% 4-ethoxymethylene-2-phenyl oxazolone (OX; BDH-Chemicals, GB) in acetone/olive oil applied topically. DTH sensitivity was elicited 5 days later as follows. Mice were challenged with 0.5% OX in acetone/olive oil. The ear was measured immediately before challenge and 24 h later with Mitutoyo engineer's micrometer (Japan). The individual measuring the swelling of the ear was blinded to the identity of the groups of mice. To interfere with DTH response, the low molecular weight immuno-regulatory fractions, diluted in PBS, were administrated subcutaneously into the back of the treated mice at the indicated time schedules and concentrations. Treated mice were inspected during and after (>2 months) the treatment and no major side-effects were observed clinically.
In particular, CD1 mice (available from the Weizmann Institute Animal Breeding Center, Rehovot, Israel), 4-12 mice per group were treated as described in Section 5.2 or 6.8.

[2] = system: mortality after irradiation; assay: Radioprotective effects in gamma-irradiated mice; type: in vivo, BALB/c mice; conditions: 750 rads; three administrations; 300 ng H-9392, 1 μg glucosamine
Method: Groups of female BALB/c mice, 8 weeks old, 5-10 mice per group, were injected subcutaneously with either saline (0.1 ml, control), H-9392 (30 ng/mouse), or glucosamine (10,000 ng/mouse) 1 day before irradiation, and weekly thereafter until termination of the experiment on day 30. All the mice were irradiated to a dose of 700 rads using a ^60Co gamma radiation source.
The mortality within the different groups of mice was then scored over a 30 day period. […] The group of mice which had been injected with glucosamine also fared better than the control group, showing a 20% mortality rate in the same period.
In a separate experiment, groups of BALB/c mice (5 mice to a group) were likewise exposed to 750 rads of gamma-rays, except that these groups of mice were treated with test substances (saline at 0.1 ml per mouse; H-9392 at 0.3, 3, 30 and 300 ng/mouse; and glucosamine at 1, 10 and 100 μg/mouse) on the day before irradiation, on the sixth day after irradiation, and once again on the thirteenth day after irradiation only. All treatment ceased after the third and last administration.

IDDM of NOD mice = assay: Insulin dependent diabetes mellitus (IDDM) of NOD mice; type: in vivo; conditions: H-9392 30 ng, glucosamine 10,000 ng; all the control mice had died (FIG. 41A)
[3] = system: LPS-induced inflammation of the cornea; assay: LPS-induced inflammation of the rat cornea; type: in vivo, Lewis rats
Method: LPS-induced inflammation of the cornea is TNF dependent, as shown by the work of Vanderhagen, C. and co-workers in the Netherlands, “Kinetics of Intraocular TNF and IL-6 in Endotoxin-Induced Uveitis in the Rat,” submitted for publication. Using a 30-gauge needle, LPS (5 ng) was injected into the cornea of Lewis rats. After one day, separate groups of rats, 2 to a group (or 4 eyes to a group) were then injected subcutaneously with phosphate-buffered saline (0.05 ml) or H-1020 (at a dose of either 50 ng/rat or 200 ng/rat). The effects, if any, were scored as follows:
in which the sum of the points is used as the total score.

[4] = system: secretion of active TNF-α by activated human CD4+ T cells; assay: Bioassay of TNF-α activity using human CD4+ T cells derived from PBLs (human PBL bioassay); type: cell-based; conditions: for Bioassay of TNF Activity: Table XXIII, conc range of 1 μg/ml-0.01 pg/ml, inconsistent = same result not obtained for all three bioassays; for “R” value: no effect, zero assigned
From the text: Non adherent cells were eluted and washed.
Nophar, Y. et al. J. Immunol. (1988) 140 (10):3456-3460.

[5] = Table XXIIIA, no effect, zero assigned

SMILES: N[C@H]1C(O)O[C@H](CO)[C@H](O)[C@@H]1O (stereo partly drawn) [GalN, D-Galactosamine, reference compound]
- effect on AA (adjuvant arthritis; different dosages, s.c. weekly (FIG. 38C)): inhibitory effects but to a much lesser degree
- DTH ([1]; Table XXIIIC, 0.00004 μg/gm s.c., control 18.9 ± 0.7): 8.9 ± 0.6 10^−2 mm
- DTH ([1]; Table XXIIIC, 0.12 μg/gm s.c., control 18.9 ± 0.7): 6.5 ± 0.7 10^−2 mm

SMILES: N[C@@H](C=O)[C@@H](O)[C@H](O)[C@H](O)CO [GlcN, 2-amino-2-deoxy-D-glucose, reference compound]
- activity in suppressing mortality after irradiation [2]: moderate activity
- mice died by age 5 months (IDDM of NOD mice): about half
- DTH ([1]; Table XXIIIC, 0.000012 μg/gm s.c., control 19.7 ± 1.2): 5 ± 0.7 10^−2 mm
- DTH ([1]; Table XXIIIC, 0.4 μg/gm s.c., control 19.7 ± 1.2): 2.3 ± 0.9 10^−2 mm

SMILES: O=S(=O)(O)N[C@H]1C(O)O[C@H](CO)[C@@H](O)[C@@H]1OS(=O)(=O)O (stereo partly drawn) [GlcN-2, 3S, D-Glucosamine-2,3-disulfate, reference compound]
- effective dose range for inhibition ≧50% of control ([1]; s.c.): narrow

SMILES: O=S(=O)(O)N[C@H]1C(O)O[C@H](COS(=O)(=O)O)[C@@H](O)[C@@H]1O (stereo partly drawn) [GlcN-2, 6S, D-Glucosamine-2,6-disulfate, reference compound]
- effective dose range for inhibition ≧50% of control ([1]; s.c.): narrow

SMILES: O=S(=O)(O)N[C@H]1C(O)O[C@H](CO)[C@@H](O)[C@@H]1O (stereo partly drawn) [GlcN-2S, D-Glucosamine-2-N-sulfate, reference compound]
- “R” value ([1]; Table XXIIIC, no effect, zero assigned): 0 % × (μg/gm)^−1
- effect on DTH (printed in the Dose column) ([1]; Table XXIIIC): N.E.

SMILES: N[C@H]1C(O)O[C@H](CO)[C@@H](O)[C@@H]1OS(=O)(=O)O (stereo partly drawn) [GlcN-3S, D-Glucosamine-3-sulfate, reference compound]
- effect on DTH (printed in the Dose column) ([1]; Table XXIIIC): N.E.

SMILES: N[C@H]1C(O)O[C@H](COS(=O)(=O)O)[C@@H](O)[C@@H]1O (stereo partly drawn) [GlcN-6S, D-Glucosamine-6-sulfate, reference compound]
- effect on DTH (printed in the Dose column) ([1]; Table XXIIIC): N.E.

SMILES: O=C(O)C1=C[C@H](O)[C@@H](O)[C@H](O[C@H]2[C@H](O)[C@@H](NS(=O)(=O)O)C(O)O[C@@H]2COS(=O)(=O)O)O1 (stereo partly drawn) [H-1020, 4-deoxy-4-en-iduronic acid-(α-1,4)-2-deoxy-2-N-sulfate-6-O-sulfateglucosamine]
- effect on local LPS-induced inflammation relative to control ([3]; 50 ng/rat s.c. (FIG. 39)): effective to suppress
- effect on local LPS-induced inflammation relative to control ([3]; 200 ng/rat s.c. (FIG. 39)): failed to provide a significant effect

SMILES: O=C(O)C1=C[C@H](O)[C@@H](O)[C@H](O[C@H]2[C@H](O)[C@@H](NS(=O)(=O)O)C(O)O[C@@H]2CO)O1 (stereo partly drawn) [H-1145, 4-deoxy-4-en-iduronic acid-(α-1,4)-2-deoxy-2-N-sulfateglucosamine]
- “R” value [1, 5]: 0 % × (μg/gm)^−1
- effect on DTH (printed in the Dose column) ([1]; Table XXIIIA): N.E.

SMILES: CC(=O)NC1C(O)OC(COS(=O)(=O)O)C(OC2OC(C(=O)O)=CC(O)C2O)C1O (stereo not drawn) [H-8642, 4-deoxy-4-en-iduronic acid-(α-1,4)-2-deoxy-2-N-acetyl-6-O-sulfateglucosamine]
- Bioassay of TNF Activity [4]: Inconsistent
- “R” value [1, 5]: 0 % × (μg/gm)^−1
- effect on DTH (printed in the Dose column) ([1]; Table XXIIIA): N.E.

SMILES: CC(=O)N[C@H]1C(O)O[C@H](CO)[C@@H](O[C@@H]2OC(C(=O)O)=C[C@H](O)[C@H]2OS(=O)(=O)O)[C@@H]1O (stereo partly drawn) [H-8767, 2-O-sulfate-4-deoxy-4-en-iduronic acid-(α-1,4)-2-deoxy-2-N-acetylglucosamine]
- Bioassay of TNF Activity [4]: Inconsistent
- “R” value [1, 5]: 0 % × (μg/gm)^−1
- effect on DTH (printed in the Dose column) ([1]; Table XXIIIA): N.E.

SMILES: NC1C(O)OC(COS(=O)(=O)O)C(OC2OC(C(=O)O)=CC(O)C2OS(=O)(=O)O)C1O (stereo not drawn) [H-8892, 2-O-sulfate-4-deoxy-4-en-iduronic acid-(α-1,4)-2-deoxy-6-O-sulfateglucosamine]
- Bioassay of TNF Activity [4]: No effect
- “R” value [4]: 0 % × (pg/ml)^−1
- “R” value [1, 5]: 0 % × (μg/gm)^−1
- effect on DTH (printed in the Dose column) ([1]; Table XXIIIA): N.E.

SMILES: N[C@H]1C(O)O[C@H](COS(=O)(=O)O)[C@@H](O[C@@H]2OC(C(=O)O)=C[C@H](O)[C@H]2O)[C@@H]1O (stereo partly drawn) [H-9017, 4-Deoxy-4-en-iduronic acid-(α-1,4)-2-deoxy-6-O-sulfateglucosamine]
- Bioassay of TNF Activity [4]: No effect
- “R” value [4]: 0 % × (pg/ml)^−1
- “R” value [1, 5]: 0 % × (μg/gm)^−1
- effect on DTH (printed in the Dose column) ([1]; Table XXIIIA): N.E.

SMILES: N[C@H]1C(O)O[C@H](CO)[C@@H](O[C@@H]2OC(C(=O)O)=C[C@H](O)[C@H]2OS(=O)(=O)O)[C@@H]1O (stereo partly drawn) [H-9142, 2-O-sulfate-4-deoxy-4-en-iduronic acid-(α-1,4)-2-deoxyglucosamine]
- Bioassay of TNF Activity [4]: Inconsistent
- “R” value [1, 5]: 0 % × (μg/gm)^−1
- effect on DTH (printed in the Dose column) ([1]; Table XXIIIA): N.E.

SMILES: O=C(O)C1=C[C@H](O)[C@@H](OS(=O)(=O)O)[C@H](O[C@H]2[C@H](O)[C@@H](NS(=O)(=O)O)C(O)O[C@@H]2COS(=O)(=O)O)O1 (stereo partly drawn) [H-9267, 2-O-sulfate-4-deoxy-4-en-iduronic acid-(α-1,4)-2-deoxy-2-N-sulfate-6-O-sulfateglucosamine]
- Bioassay of TNF Activity [4]: Inconsistent
- “R” value ([1]; Table XXIIIA, inhibition of DTH, s.c.): 1.60 × 10^5 % × (μg/gm)^−1

SMILES: CC(=O)N[C@H]1C(O)O[C@H](COS(=O)(=O)O)[C@@H](O[C@@H]2OC(C(=O)O)=C[C@H](O)[C@H]2OS(=O)(=O)O)[C@@H]1O (stereo partly drawn) [H-9517, 2-O-sulfate-4-deoxy-4-en-iduronic acid-(α-1,4)-2-deoxy-2-N-acetyl-6-O-sulfateglucosamine]
- Bioassay of TNF Activity [4]: Inconsistent^c

SMILES: CC(=O)N[C@H]1C(O)O[C@H](CO)[C@@H](O)[C@@H]1O (stereo partly shown) [NAc-GlcN, N-Acetylglucosamine, reference compound]
- effect on DTH (printed in the Dose column) ([1]; Table XXIIIC): N.E.

SMILES: C[C@@H]1C[C@H]2[C@@H]3CCC4=CC(=O)C=C[C@]4(C)[C@@]3(F)[C@@H](O)C[C@]2(C)[C@@]1(O)C(=O)COP(=O)(O)O [dexamethasone phosphate, reference compound]
- course of AA after treatment was ended (adjuvant arthritis; treatment from day 12, dexamethasone phosphate daily or weekly, disaccharide weekly): suffered a relapse
- severity of the AA score at 30 days post-induction (adjuvant arthritis; weekly s.c. from day 12, dexamethasone phosphate 100 μg or disaccharide 120 ng per rat (FIG. 38G)): only a moderate reduction in the severity of the AA score
